# Read-outs that look alike come from different tables or passages of the source.
# Experiments:
# [1] = system: broilers; assay: Trials in which GAA compensates dietary energy reduction (energy-sparing value); type: in vivo
# Text: Reduction of dietary energy content and adding GAA to the feed restored broiler performance, which supports this conclusion (Malins et al., 2017; Mousavi S. N., Afsar A., Lotfollahian H. (2013) Effects of guanidinoacetic acid supplementation to broiler diets with varying energy contents, Journal of Applied Poultry Research, Volume 22, Issue 1, 2013, Pages 47-54, ISSN 1056-6171, https://doi.org/10.3382/japr.2012-00575; Heger, J., J. Zelenka, V. Machander, C. Cruz, M. Lestak, and D. Hampel. (2014) “Effects of Guanidinoacetic Acid Supplementation to Broiler Diets with Varying Energy Content.” Acta Universitatis Agriculturae Silviculturae Mendelianae Brunensis 62: 477-485. doi:10.11118/actaun201462030477; Abudabos, A. M., F. Saleh, A. Lemme, and H. A. H. Zakaria (2014) “The Relationship between Guanidino Acetic Acid and Metabolisable Energy Level of Diets on Performance of Broiler Chickens.” Italian Journal of Animal Science 13: 548-556. doi:10.4081/ijas.2014.3269).
# The energy reduction level as well as the GAA supplementation rate was not always the same in trails in which GAA was used to compensate for energy reduction. In most trials dietary energy level of a standard diet was reduced by 50 kcal/kg feed and 0.06% GAA was supplemented to maintain bird performance. This would be equivalent to an energy-sparing value of 83.333 kcal/kg of GAA. However, considering all 20 identified independent trials in which GAA was used to compensate for dietary energy reduction, a wide range of energy-sparing values from 41.667 to 568.333 kcal/kg was tested. […] It can be predicted that an energy-sparing value of 163.889 kcal/kg GAA maintains BWG of the birds, whereas there is still a small improvement for FCR. For FCR, it was found out that even an energy-sparing value of 197.222 kcal/kg GAA maintains performance.
# [2] = system: broilers; conditions: GAA supplemented in broiler diets, compared to non-supplemented diets, asymptotic; cited from earlier work
# [3] = system: broilers; conditions: linear regression, relative scale, control = 100%, cited from earlier work
# [4] = system: broiler chickens; conditions: cited from earlier work
# [5] = system: broilers; conditions: reduced dietary energy content plus GAA added to the feed; cited from earlier work
# [6] = system: broilers; conditions: EFSA 2009; Tossenberger et al. 2016; cited from earlier work
# [7] = Vranes et al. 2017; relatively stable during pelleting or extruding; cited from earlier work
structure (smiles),measurement,setting,value
"N=C(N)NCC(=O)O [GAA, Guanidinoacetic acid]",energy-sparing value that maintains performance for FCR,[1]; from 20 independent trials,197.222 kcal/kg GAA
same,energy GAA can compensate (energy-sparing value),"[1]; overall, 20 independent trials",more than 83.333 kcal/kg
same,energy-sparing value that maintains BWG,"[1]; predicted from 20 independent trials, still a small improvement for FCR",163.889 kcal/kg GAA
same,"increase of muscle CREA, maximum",[2],≤ 29%
same,FCR improvement,[3]; GAA dose 0.6 g/kg,4.5 points
same,FCR improvement,[3]; GAA dose 1.2 g/kg,8.8 points
same,replacement efficiency,[4]; 1.7 g/kg L-ARG compensated by 1.2 g/kg GAA (Dilger et al. 2013),142%
same,circulatory ARG levels,[4]; birds fed ARG-deficient diets (DeGroot et al. 2018),increased
same,L-ARG compensated,[4]; by 1.2 g/kg GAA (Dilger et al. 2013),1.7 g/kg
same,supplemental L-ARG needed to reach a given feed conversion ratio,"[4]; very ARG-deficient diet, at 1.2 g/kg supplemental GAA (Dilger et al. 2013)",2.1 g/kg
same,ARG-sparing effect,[4]; very deficient ARG diets (Dilger et al. 2013),143%
same,broiler performance,[5],restored
same,bioavailability,[6],high
same,thermal stability,[7],high

# From US20260245700A1, “METHOD FOR GIVING A RECOMMENDATION ON THE DIETARY ENERGY OF A POULTRY DIET” (Evonik Operations GmbH, priority 2023, published 2026)
